Measurements taken from paper PMC10675340, “Preparation, Radiolabeling with ^68Ga/^177Lu and Preclinical Evaluation of Novel Angiotensin Peptide Analog: A New Class of Peptides for Breast Cancer Targeting” (Pharmaceuticals, 2023).
Like-named read-outs stand apart in the source and are kept apart here. Where a SMILES comes first, the peptide text is derived from it. [ ]: non-standard residue; d: D form. The star is where a group is joined. DOTA = O=C(O)CN1CCN(CC(=O)O)CCN(CC(=O)*)CCN(CC(=O)O)CC1; βAla = NCCC(=O)O

Assays:
[1] = In vivo biodistribution in normal Balb/c mice; set-up: species or system mouse; settings: female, mouse, iv, total radioactivity, normal Balb/c mice, i.v. tail vein, mean ± SD, n = 4-6
Experimental: (§1) The in vivo biodistribution of ^68Ga-labeled AngII peptide analog was carried out in female Balb/c mice, at various time points, to observe the uptake in the normal tissues and organs and find the excretion route of the radiolabeled peptides. […] Low uptake and retention of the radiopeptide in the liver varying from 1.54 ± 0.28% ID/g at 45 min to 0.48 ± 0.17% ID/g at 2 h p.i. is probably related to the high hydrophilicity (log p = −0.55 ± 0.11) of the ^68Ga-labeled AngII peptide analog. […] The efficient clearance from the kidneys is possibly associated with the urinary excretion of the radiopeptide. […] The low amount of uptake in the bone (up to 0.37 ± 0.14% ID/g) (Table 2) indicates the minimal breakdown of the ^68Ga-labeled AngII peptide complex in vivo combined with the minor release of free ^68Ga. These findings are in agreement with the high in vitro metabolic stability observed in the human plasma for the radiolabeled AngII peptide. The accumulation in the extremely vascular organ lungs was also low (up to 1.11 ± 0.37% ID/g) signifying a low trapping by the lungs.
(§2) Approval from the Institutional Animal Care and Use Committee was obtained for the animal protocol used. Additionally, strict international regulations govern the safe and proper use of laboratory animals employed during animal experiments. In vivo, biodistribution was performed on healthy female mice according to the methods essentially described previously. In summary, Balb/c mice (n = 5 per time point, body mass 20–25 g) at 45 min and 2 h were administered with the HPLC-purified AngII peptide (~1 µg, 100 µL, 0.925–1.85 MBq; 25–50 µCi) via lateral tail vein injection. At the specified time points, the animals were sacrificed by cervical dislocation. A fraction of the blood was collected from cardiac puncture. Urine was also collected and measured with the bladder contents. Major organs, such as the lungs, pancreas, stomach, liver, heart, kidneys, and intestines were isolated, weighed, and measured for radioactivity. The uptake values of the radiolabeled peptide in different organs are expressed as the percent injected dose per gram (% ID/g) of tissue/organ. The radioactivity in the urine with bladder contents is shown as the percent of the injected dose per organ (% ID/organ). To calculate the injected dose, a standard (20-fold dilution of injected dose) was prepared and counted together with animal tissue samples.

[2] = system: Balb/c mice; assay: In vivo biodistribution in normal Balb/c mice; set-up: species or system mouse; settings: normal Balb/c mice, 45 min and 2 h p.i.
Experimental: as §1, §2

tissue uptake at 0.75 h ([1]; blood, 45 min p.i., read-out: Blood uptake): 0.85 ± 0.24 %ID/g
tissue uptake at 2 h ([1]; blood, 2 h p.i., read-out: Blood uptake): 0.61 ± 0.15 %ID/g
tissue uptake at 0.75 h ([1]; heart, 45 min p.i., read-out: Heart uptake): 1.39 ± 0.51 %ID/g
tissue uptake at 2 h ([1]; heart, 2 h p.i., read-out: Heart uptake): 0.99 ± 0.26 %ID/g
tissue uptake at 0.75 h ([1]; intestines without contents, 45 min p.i., read-out: Intestines uptake (portion without contents)): 1.45 ± 0.39 %ID/g
tissue uptake at 2 h ([1]; intestines without contents, 2 h p.i., read-out: Intestines uptake (portion without contents)): 1 ± 0.28 %ID/g
tissue uptake at 0.75 h ([1]; kidneys, 45 min p.i., read-out: Kidneys uptake): 9.95 ± 3.39 %ID/g
tissue uptake at 2 h ([1]; kidneys, 2 h p.i., read-out: Kidneys uptake): 3.78 ± 1.46 %ID/g
tissue uptake at 0.75 h ([1]; liver, 45 min p.i., read-out: Liver uptake): 1.54 ± 0.28 %ID/g
tissue uptake at 2 h ([1]; liver, 2 h p.i., read-out: Liver uptake): 0.48 ± 0.17 %ID/g
tissue uptake at 0.75 h ([1]; lungs, 45 min p.i., read-out: Lungs uptake): 1.11 ± 0.37 %ID/g
tissue uptake at 2 h ([1]; lungs, 2 h p.i., read-out: Lungs uptake): 0.6 ± 0.2 %ID/g
tissue uptake at 2 h ([1]; muscle/bone, 2 h p.i., read-out: Muscle/bone uptake): 0.28 ± 0.1 %ID/g
tissue uptake at 0.75 h ([1]; pancreas, 45 min p.i., read-out: Pancreas uptake): 0.5 ± 0.11 %ID/g
tissue uptake at 2 h ([1]; pancreas, 2 h p.i., read-out: Pancreas uptake): 0.33 ± 0.06 %ID/g
tissue uptake at 0.75 h ([1]; spleen, 45 min p.i., read-out: Spleen uptake): 0.51 ± 0.1 %ID/g
tissue uptake at 2 h ([1]; spleen, 2 h p.i., read-out: Spleen uptake): 0.31 ± 0.09 %ID/g
tissue uptake at 0.75 h ([1]; stomach, 45 min p.i., read-out: Stomach uptake): 1.06 ± 0.41 %ID/g
tissue uptake at 2 h ([1]; stomach, 2 h p.i., read-out: Stomach uptake): 0.81 ± 0.23 %ID/g
dose excreted at 0.75 h ([1]; urine with bladder contents, 45 min p.i., read-out: Urine + Bladder (urinary excretion)): 67 ± 8.9%
dose excreted at 2 h ([1]; urine with bladder contents, 2 h p.i., read-out: Urine + Bladder (urinary excretion)): 80 ± 12.9%
Radioactivity in the whole intestines (with contents) [2]: up to 2.97 % ID/g
SMILES: CC[C@H](C)[C@H](NC(=O)[C@H](Cc1ccc(O)cc1)NC(=O)[C@@H](NC(=O)[C@H](CCCNC(=N)N)NC(=O)[C@H](CC(=O)O)NC(=O)CCNC(=O)[C@H](CCCCN)NC(=O)CN1CCN(CC(=O)O)CCN(CC(=O)O)CCN(CC(=O)O)CC1)C(C)C)C(=O)N[C@@H](Cc1c[nH]cn1)C(=O)N1CCC[C@H]1C(=O)N[C@@H](Cc1ccccc1)C(=O)N[C@@H](Cc1c[nH]c2ccccc12)C(=O)N[C@@H](CCCCN)C(=O)N[C@@H](Cc1ccc(O)cc1)C(N)=O [^68Ga-DOTA-AngII peptide, metal not drawn] ({DOTA}-K[βAla]DRVYIHPFWKY-NH2)
